What was measured:
[1] = system: Winter wheat (Kampa race) seeds; assay: Seed germination test of treated winter wheat seeds (rolled in paper); assay type: in vivo; conditions: 3x50 seeds, 6 days at 22° C.
Description: (§1) Winter wheat (Kampa race; thousand grain weight of 51 grams) was used in an experiment to test the efficacy of the compositions of the present inventions in relation to known molluscicidal compounds. The seeds were disinfected for soil and germ moulds with 2 ml of Beret Gold (comprising 25 g/l of the fungicide fludioxonil) per kg of seed.
(§2) Sepiret® was added to all dry disinfections, and is the coating that was added to all agents of which the formulation was not suitable for coating.
Table 2 provides an overview of the amounts of diluent water and Sepiret® used for treating the wheat seeds. Table 2 further provides the quality of the coating and the percentages of germinating seeds in a seed germination test. In this test, the percentage of germination of 3×50 seeds, rolled in paper, was determined after 6 days at 22° C. (continuously) and a 16 hours light regime.

[2] = system: Deroceras reticulatum (grey field slug); assay: Example 1: pot test, treated winter wheat seed with 5 adult slugs per pot, 14 days; assay type: in vivo; conditions: for differences in the number of damaged seeds / protection / slug controlling effect (conclusion): Example 1, dosages tested; for protection / slug controlling effect (conclusion): winter wheat seed treatment
Description: as §1, §2
The seeds were sown in earthenware pots with an internal diameter of 20 cm and a height of 18 cm, filled with 7 cm of potting soil (Trio BV, Weesp, The Netherlands) and with a top 2 cm of white quartz sand. A total of 40 seeds was placed in each pot, in a pattern of concentric circles on top of the quartz sand, the germ facing upwards. To each pot a total of 5 adult specimens of the test slug Deroceras reticulatum (grey field slug) were added. The pots were incubated at ±15° C. with a relative humidity of ±90% and light regime of ±12 hours light/12 hours dark, without artificial lighting. The pots were not irrigated overhead. In total, 4 parallel tests were performed for each test.
Following the addition of the slugs, the number of damaged seeds was counted after 2, 3, 7, 10 and 14 days. The number of plants present (germinated and not eaten or damaged by the slugs) was determined 3, 7, 10 and 14 days after the start of the test. […] The number of dead slugs was counted 2, 3, 7, 10 and 14 days after the start of the test (but not removed). Finally, on days 3, 7, 10 and 14 after the start of the test, the number fecal pellets was counted.
The data were statistically analysed by using F-tests (α=0.05) and pair-wise Student-tests.

[3] = 2 ml formulated per kg seed, 2 days after sowing
[4] = 2 ml formulated per kg seed, 3 days after sowing
[5] = 2 ml formulated per kg seed, 7 days after sowing
[6] = 2 ml formulated per kg seed, 10 days after sowing
[7] = 2 ml formulated per kg seed, 14 days after sowing
[8] = 10 ml formulated per kg seed, 2 days after sowing
[9] = 10 ml formulated per kg seed, 3 days after sowing
[10] = 10 ml formulated per kg seed, 7 days after sowing
[11] = 10 ml formulated per kg seed, 10 days after sowing
[12] = 10 ml formulated per kg seed, 14 days after sowing
[13] = 4 ml formulated per kg seed, 2 days after sowing
[14] = 4 ml formulated per kg seed, 3 days after sowing
[15] = 4 ml formulated per kg seed, 7 days after sowing
[16] = 4 ml formulated per kg seed, 10 days after sowing
[17] = 4 ml formulated per kg seed, 14 days after sowing
[18] = 8 ml formulated per kg seed, 2 days after sowing
[19] = 8 ml formulated per kg seed, 3 days after sowing
[20] = 8 ml formulated per kg seed, 7 days after sowing
[21] = 8 ml formulated per kg seed, 10 days after sowing
[22] = 8 ml formulated per kg seed, 14 days after sowing

CC=C(C)C(=O)OC1CC(OC(C)=O)C2(C(=O)OC)COC3C2C12COC(O)(C(=O)OC)C2C(C)(C12OC1(C)C1CC2OC2OC=CC21O)C3O (stereo not shown) [azadirachtine]
Percentage germinated ([1]; 2 ml formulated per kg seed): 90% | Percentage germinated ([1]; 10 ml formulated per kg seed): 65% | number of utilizable plants after 14 days ([2]; 2 ml formulated per kg seed): 0.8 | percentage of damaged seeds after 14 days ([2]; 2 ml formulated per kg seed): 95% | Mean number of damaged seeds per pot [2, 3]: 5.8 | Mean number of dead slugs per pot [2, 3]: 0.3 | Mean number fecal pellets per pot [2, 4]: 62 | Mean number of damaged seeds per pot [2, 4]: 20.8 | Mean number of dead slugs per pot [2, 4]: 0.3 | Mean number of plants present per pot [2, 4]: 5.3 | Mean number fecal pellets per pot [2, 5]: 106 | Mean number of damaged seeds per pot [2, 5]: 37.0 | Mean number of dead slugs per pot [2, 5]: 0.3 | Mean number of plants present per pot [2, 5]: 1.0 | Mean number fecal pellets per pot [2, 6]: 139 | Mean number of damaged seeds per pot [2, 6]: 37.0 | Mean number of dead slugs per pot [2, 6]: 0.3 | Mean number of plants present per pot [2, 6]: 1.3 | Mean number fecal pellets per pot [2, 7]: 156 | Mean number of damaged seeds per pot [2, 7]: 38.0 | Mean number of dead slugs per pot [2, 7]: 0.5 | Mean number of plants present per pot [2, 7]: 0.8 | number of utilizable plants after 14 days ([2]; 10 ml formulated per kg seed): 2.3 | percentage of damaged seeds after 14 days ([2]; 10 ml formulated per kg seed): 86% | Mean number of damaged seeds per pot [2, 8]: 4.0 | Mean number of dead slugs per pot [2, 8]: 0 | Mean number fecal pellets per pot [2, 9]: 32 | Mean number of damaged seeds per pot [2, 9]: 13.0 | Mean number of dead slugs per pot [2, 9]: 0 | Mean number of plants present per pot [2, 9]: 4.8 | Mean number fecal pellets per pot [2, 10]: 93 | Mean number of damaged seeds per pot [2, 10]: 30.5 | Mean number of dead slugs per pot [2, 10]: 0 | Mean number of plants present per pot [2, 10]: 2.8 | Mean number fecal pellets per pot [2, 11]: 130 | Mean number of damaged seeds per pot [2, 11]: 32.5 | Mean number of dead slugs per pot [2, 11]: 0.3 | Mean number of plants present per pot [2, 11]: 3.3 | Mean number fecal pellets per pot [2, 12]: 138 | Mean number of damaged seeds per pot [2, 12]: 34.5 | Mean number of dead slugs per pot [2, 12]: 0.3 | Mean number of plants present per pot [2, 12]: 3.8 | differences in the number of damaged seeds [2]: did not result in significant differences | protection / slug controlling effect (conclusion) [2]: no sufficient protection to the plants

COc1cc(C=CC(=O)O)cc(OC)c1 [dimethoxycinnamic acid, 3,5-dimethoxycinnamic acid]
Percentage germinated ([1]; 2 ml formulated per kg seed): 75% | Percentage germinated ([1]; 4 ml formulated per kg seed): 75% | Percentage germinated ([1]; 8 ml formulated per kg seed): 38% | number of utilizable plants after 14 days ([2]; 2 ml formulated per kg seed): 0 | percentage of damaged seeds after 14 days ([2]; 2 ml formulated per kg seed): 99% | Mean number of damaged seeds per pot [2, 3]: 5.0 | Mean number of dead slugs per pot [2, 3]: 0 | Mean number fecal pellets per pot [2, 4]: 66 | Mean number of damaged seeds per pot [2, 4]: 17.5 | Mean number of dead slugs per pot [2, 4]: 0 | Mean number of plants present per pot [2, 4]: 3.5 | Mean number fecal pellets per pot [2, 5]: 115 | Mean number of damaged seeds per pot [2, 5]: 39.5 | Mean number of dead slugs per pot [2, 5]: 0.3 | Mean number of plants present per pot [2, 5]: 0 | Mean number fecal pellets per pot [2, 6]: 133 | Mean number of damaged seeds per pot [2, 6]: 39.3 | Mean number of dead slugs per pot [2, 6]: 0.3 | Mean number of plants present per pot [2, 6]: 0 | Mean number fecal pellets per pot [2, 7]: 141 | Mean number of damaged seeds per pot [2, 7]: 39.8 | Mean number of dead slugs per pot [2, 7]: 0.8 | Mean number of plants present per pot [2, 7]: 0 | number of utilizable plants after 14 days ([2]; 4 ml formulated per kg seed): 1.5 | percentage of damaged seeds after 14 days ([2]; 4 ml formulated per kg seed): 87% | Mean number of damaged seeds per pot [2, 13]: 4.3 | Mean number of dead slugs per pot [2, 13]: 0 | Mean number fecal pellets per pot [2, 14]: 46 | Mean number of damaged seeds per pot [2, 14]: 17.3 | Mean number of dead slugs per pot [2, 14]: 0.3 | Mean number of plants present per pot [2, 14]: 9.3 | Mean number fecal pellets per pot [2, 15]: 120 | Mean number of damaged seeds per pot [2, 15]: 31.8 | Mean number of dead slugs per pot [2, 15]: 0.3 | Mean number of plants present per pot [2, 15]: 1.8 | Mean number fecal pellets per pot [2, 16]: 138 | Mean number of damaged seeds per pot [2, 16]: 32.0 | Mean number of dead slugs per pot [2, 16]: 0.3 | Mean number of plants present per pot [2, 16]: 2.0 | Mean number fecal pellets per pot [2, 17]: 158 | Mean number of damaged seeds per pot [2, 17]: 34.8 | Mean number of dead slugs per pot [2, 17]: 1.0 | Mean number of plants present per pot [2, 17]: 2.0 | number of utilizable plants after 14 days ([2]; 8 ml formulated per kg seed): 1.0 | percentage of damaged seeds after 14 days ([2]; 8 ml formulated per kg seed): 84% | Mean number of damaged seeds per pot [2, 18]: 1.8 | Mean number of dead slugs per pot [2, 18]: 0 | Mean number fecal pellets per pot [2, 19]: 60 | Mean number of damaged seeds per pot [2, 19]: 13.0 | Mean number of dead slugs per pot [2, 19]: 0 | Mean number of plants present per pot [2, 19]: 1.5 | Mean number fecal pellets per pot [2, 20]: 106 | Mean number of damaged seeds per pot [2, 20]: 30.3 | Mean number of dead slugs per pot [2, 20]: 0 | Mean number of plants present per pot [2, 20]: 1.0 | Mean number fecal pellets per pot [2, 21]: 150 | Mean number of damaged seeds per pot [2, 21]: 31.5 | Mean number of dead slugs per pot [2, 21]: 0 | Mean number of plants present per pot [2, 21]: 1.5 | Mean number fecal pellets per pot [2, 22]: 158 | Mean number of damaged seeds per pot [2, 22]: 33.8 | Mean number of dead slugs per pot [2, 22]: 0 | Mean number of plants present per pot [2, 22]: 1.5 | differences in the number of damaged seeds [2]: did not result in significant differences | protection / slug controlling effect (conclusion) [2]: no slug controlling effect

Source: patent US20070167492A1, “Molluscicidal agents” (priority 2003, published 2007)
